Test results published in US12162896B2, “Salts and polymorphs of certain MCL-1 inhibitors” (Gilead Sciences, Inc., priority 2022, dated 2024).
Structures can show the parent of a compound that is named as a salt.

Experiments:
MCL-1 = MCL-1 (Homo sapiens, UniProt Q07820); details: stated in background, WO 2019/222112; cited from earlier work
[1] = XRPD analysis of the sample post DVS (form change); format: physicochemical; details: sample after DVS cycles at 25° C.
Protocol: X-ray powder diffraction (XRPD) analysis was conducted on a diffractometer (PANalytical XPERT-PRO, PANalytical B. V., Almelo, Netherlands) using copper radiation (Cu Kα, λ=1.541874). Samples were spread evenly on a zero-background sample plate. The generator was operated at a voltage of 45 kV and amperage of 40 mA. Slits were Soller 0.02 rad, antiscatter 1.0°, and divergence. Scans were performed from 2 to 40° 2−θ with a 0.0167 step size. Data analysis was performed using X'Pert Data Viewer V1.2d (PANalytical B.V., Almelo, Netherlands).
(§1) Hygroscopicity was studied using dynamic vapor sorption (DVS, TA Q5000 SA, TA Instruments, New Castle, DE or DVS, DVS Intrinsic, Surface Measurement Systems, London, UK). A sample (2-20 mg) was placed in an aluminum DVS pan and loaded on the sample side of the twin pan balance. The water sorption and desorption were studied as a function of relative humidity (RH) at 25° C. In 10% RH increments, the relative humidity was increased from 40% RH to 90% RH and then decreased back to 0%, followed by repeating the full cycle from 0% RH up to 90% RH and back to 0% RH. […] Data analysis was performed using Universal Analysis 2000 Version 4.5A (TA Instruments, New Castle, DE) for TA DVS runs and Microsoft Excel for SMS DVS runs.

[2] = Hygroscopicity by dynamic vapor sorption (DVS); format: physicochemical; details: for hygroscopicity (DVS analysis, in words): 0% to 90% RH, about 25° C.; for water (moisture) absorbed by DVS: between 0% and 90% RH at about 25° C.
Protocol: as §1

[3] = Competitive slurries of polymorph forms in EtOH; format: physicochemical; details: for outcome of competitive slurry with Form I: in EtOH

MCL-1, sequence (Q07820 whole entry, species assumed): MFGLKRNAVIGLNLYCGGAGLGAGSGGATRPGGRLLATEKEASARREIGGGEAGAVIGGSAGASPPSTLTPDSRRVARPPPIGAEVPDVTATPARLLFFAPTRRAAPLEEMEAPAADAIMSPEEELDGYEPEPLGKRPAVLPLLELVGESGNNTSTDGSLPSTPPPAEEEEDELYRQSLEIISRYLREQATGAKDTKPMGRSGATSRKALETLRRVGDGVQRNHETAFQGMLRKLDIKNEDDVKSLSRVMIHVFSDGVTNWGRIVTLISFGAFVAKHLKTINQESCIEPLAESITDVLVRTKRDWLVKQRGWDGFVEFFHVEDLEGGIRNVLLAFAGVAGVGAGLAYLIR

Compound: COc1nn(C)cc1C(=O)N[S@@]1(=O)=NC(=O)c2ccc3c(c2)N(C[C@@H]2CC[C@H]2[C@@H](OC)/C=C/C[C@H](C)C1)C[C@@]1(CCCc2cc(Cl)ccc21)CO3 [Compound 1]
- MCL-1 inhibition (in words) (MCL-1): effective MCL-1 inhibitor

Compound: COc1nn(C)cc1C(=O)N[S@@]1(=O)=NC(=O)c2ccc3c(c2)N(C[C@@H]2CC[C@H]2[C@@H](OC)/C=C/C[C@H](C)C1)C[C@@]1(CCCc2cc(Cl)ccc21)CO3 [DEA Salt Form 1]
- form change by XRPD post DVS [1]: no form change
- hygroscopicity (DVS analysis, in words) [2]: moderately hygroscopic
- water (moisture) absorbed by DVS [2]: about 5.5 wt %

Compound: COc1nn(C)cc1C(=O)N[S@@]1(=O)=NC(=O)c2ccc3c(c2)N(C[C@@H]2CC[C@H]2[C@@H](OC)/C=C/C[C@H](C)C1)C[C@@]1(CCCc2cc(Cl)ccc21)CO3 [Form III]
- form change by XRPD post DVS [1]: no form change
- outcome of competitive slurry with Form I [3]: full conversion to Form I
- hygroscopicity (DVS analysis, in words) [2]: moderately hygroscopic
- water (moisture) absorbed by DVS [2]: up to 5 wt %

Compound: COc1nn(C)cc1C(=O)N[S@@]1(=O)=NC(=O)c2ccc3c(c2)N(C[C@@H]2CC[C@H]2[C@@H](OC)/C=C/C[C@H](C)C1)C[C@@]1(CCCc2cc(Cl)ccc21)CO3 [Form II]
- form change by XRPD post DVS [1]: no form change
- outcome of competitive slurry with Form I [3]: full conversion to Form I
- hygroscopicity (DVS analysis, in words) [2]: slightly hygroscopic
- water (moisture) absorbed by DVS [2]: up to 1.1 wt %

Compound: COc1nn(C)cc1C(=O)N[S@@]1(=O)=NC(=O)c2ccc3c(c2)N(C[C@@H]2CC[C@H]2[C@@H](OC)/C=C/C[C@H](C)C1)C[C@@]1(CCCc2cc(Cl)ccc21)CO3 [Form IV]
- outcome of competitive slurry with Form I [3]: full conversion to Form I

Compound: COc1nn(C)cc1C(=O)N[S@@]1(=O)=NC(=O)c2ccc3c(c2)N(C[C@@H]2CC[C@H]2[C@@H](OC)/C=C/C[C@H](C)C1)C[C@@]1(CCCc2cc(Cl)ccc21)CO3 [Form I]
- form change by XRPD post DVS [1]: no form change
- relative stability versus other unsolvated/desolvated forms ([3]; competitive slurries in EtOH): higher stability
- hygroscopicity (DVS analysis, in words) [2]: slightly hygroscopic
- water (moisture) absorbed by DVS [2]: about 1.4 wt %

Compound: COc1nn(C)cc1C(=O)N[S@@]1(=O)=NC(=O)c2ccc3c(c2)N(C[C@@H]2CC[C@H]2[C@@H](OC)/C=C/C[C@H](C)C1)C[C@@]1(CCCc2cc(Cl)ccc21)CO3 [K Salt Form 1]
- form change by XRPD post DVS [1]: no form change
- hygroscopicity (DVS analysis, in words) [2]: moderately hygroscopic
- moisture rapidly absorbed at ambient conditions ([2]; ambient conditions): 4-6 wt %
- water (moisture) absorbed by DVS [2]: about 11 wt %

Compound: COc1nn(C)cc1C(=O)N[S@@]1(=O)=NC(=O)c2ccc3c(c2)N(C[C@@H]2CC[C@H]2[C@@H](OC)/C=C/C[C@H](C)C1)C[C@@]1(CCCc2cc(Cl)ccc21)CO3 [Na salt Form 1]
- form change by XRPD post DVS [1]: no form change
- hygroscopicity (DVS analysis, in words) [2]: moderately hygroscopic
- water (moisture) absorbed by DVS [2]: about 7.5 wt %
